Experimental data as given in EP2540163A1, “Nematocide N-cyclopropyl-sulfonylamide derivatives” (Bayer CropScience AG, priority 2011, dated 2013).

Assays:
[1] = logP by HPLC on reversed-phase column (C 18), EEC Directive 79/831 Annex V.A8, Method A (0.1% aqueous phosphoric acid / acetonitrile, 43°C); type: physicochemical; settings: c18 reversed-phase hplc; LogP method A: HPLC reversed-phase C 18, 43°C, 0.1% aqueous phosphoric acid / acetonitrile
Method: (§1) Calibration was carried out using unbranched alkan-2-ones (having 3 to 16 carbon atoms) with known logP values (determination of the logP values by the retention times using linear interpolation between two successive alkanones).

[2] = logP by HPLC on reversed-phase column (C 18), EEC Directive 79/831 Annex V.A8, Method B (0.1% aqueous formic acid / acetonitrile, 40°C); type: physicochemical; settings: c18 reversed-phase hplc
Method: as §1

[3] = LogP method B: HPLC reversed-phase C 18, 40°C, 0.1% aqueous formic acid / acetonitrile
[4] = LogP method B: HPLC, 40°C, 0.1% aqueous formic acid and acetonitrile, gradient 10% to 90% acetonitrile

Row | Compound | chromatographic logP [1] | further results
1 | O=C(c1cc(Br)c(Br)o1)N(C1CC1)S(=O)(=O)c1ccccc1Cl [compound 1] | 3.58 | –
2 | Cc1occc1C(=O)N(C1CC1)S(=O)(=O)c1cccc(Cl)c1 [compound 3] | 3.27 | –
3 | Cc1occc1C(=O)N(C1CC1)S(=O)(=O)c1ccccc1Cl [compound 4] | 2.77 | –
4 | Cc1ccsc1C(=O)N(C1CC1)S(=O)(=O)c1cccc(Cl)c1 [compound 13] | 3.64 | –
5 | Cc1ccsc1C(=O)N(C1CC1)S(=O)(=O)c1ccccc1Cl [compound 14] | 3.12 | –
6 | O=C(c1cc(Br)c(Br)s1)N(C1CC1)S(=O)(=O)c1ccccc1Cl [compound 15] | 4.07 | –
7 | CCOC(=O)c1[nH]c(C)c(C(=O)N(C2CC2)S(=O)(=O)c2cccc(Cl)c2)c1C [compound 29] | 3.46 | –
8 | CCOC(=O)c1[nH]c(C)c(C(=O)N(C2CC2)S(=O)(=O)c2ccc(Cl)c(C(F)(F)F)c2)c1C [compound 31] | 4.08 | –
9 | CCOC(=O)c1[nH]c(C)c(C(=O)N(C2CC2)S(=O)(=O)c2ccc(Cl)cc2Cl)c1C [compound 32] | 3.63 | –
10 | Cc1nc(C(F)(F)F)c(C(=O)N(C2CC2)S(=O)(=O)c2ccccc2Cl)s1 [compound 59] | 3.2 | –
11 | Cc1ncc(C(=O)N(C2CC2)S(=O)(=O)c2cccc(Cl)c2)s1 [compound 60] | 2.8 | –
12 | Cc1ncc(C(=O)N(C2CC2)S(=O)(=O)c2ccc(Cl)c(C(F)(F)F)c2)s1 [compound 62] | 3.46 | –
13 | Cc1ncc(C(=O)N(C2CC2)S(=O)(=O)c2ccc(Cl)c(Cl)c2)s1 [compound 63] | 3.33 | –
14 | Cc1ncc(C(=O)N(C2CC2)S(=O)(=O)c2ccc(Cl)cc2Cl)s1 [compound 64] | 2.91 | –
15 | Cc1nc(C(=O)N(C2CC2)S(=O)(=O)c2ccc(Cl)c(Cl)c2)cs1 [compound 70] | 3.46 | –
16 | Cc1nc(C(=O)N(C2CC2)S(=O)(=O)c2ccc(Cl)cc2Cl)cs1 [compound 71] | 3.03 | –
17 | Cc1nn(C)c(F)c1C(=O)N(C1CC1)S(=O)(=O)c1cccc(Cl)c1 [compound 176] | 2.82 | –
18 | Cc1nn(C)c(F)c1C(=O)N(C1CC1)S(=O)(=O)c1ccc(Cl)c(Cl)c1 [compound 178] | 3.35 | –
19 | Cc1nn(C)c(F)c1C(=O)N(C1CC1)S(=O)(=O)c1ccccc1Cl [compound 180] | 2.34 | –
20 | Cc1nn(C)c(F)c1C(=O)N(C1CC1)S(=O)(=O)c1ccc(Cl)cc1Cl [compound 186] | 2.94 | –
21 | Cn1cc(C(=O)N(C2CC2)S(=O)(=O)c2ccccc2Cl)c(C(F)(F)F)n1 [compound 200] | 2.71 | –
22 | Cc1c(C(=O)N(C2CC2)S(=O)(=O)c2ccccc2Cl)cnn1-c1ccccc1 [compound 201] | 2.97 | –
23 | Cn1nc(C(F)(F)F)c(C(=O)N(C2CC2)S(=O)(=O)c2ccccc2Cl)c1Cl [compound 208] | 3.27 | –
24 | Cc1nn(C)c(F)c1C(=O)N(C1CC1)S(=O)(=O)c1cccc(Cl)c1Cl [compound 210] | 2.77 | –
25 | COc1nn(C)cc1C(=O)N(C1CC1)S(=O)(=O)c1ccccc1Cl [compound 211] | 1.94 | –
26 | Cc1nn(C)c(F)c1C(=O)N(C1CC1)S(=O)(=O)c1ccc(Cl)c(Cl)c1Cl [compound 212] | 3.35 | –

Row | Compound | chromatographic logP [1] | further results
27 | Cc1nn(C)c(F)c1C(=O)N(C1CC1)S(=O)(=O)c1ccc(C(F)(F)F)cc1Cl [compound 213] | 3.19 | –
28 | Cn1cc(C(=O)N(C2CC2)S(=O)(=O)c2ccccc2Cl)c(I)n1 [compound 214] | 2.31 | –
29 | Cc1nn(C)c(C)c1C(=O)N(C1CC1)S(=O)(=O)c1ccccc1Cl [compound 215] | 2.17 | –
30 | Cc1nn(C)c(F)c1C(=O)N(C1CC1)S(=O)(=O)c1c(Cl)cccc1Cl [compound 218] | 2.52 | –
31 | Cc1nn(C)c(Oc2cccc(Cl)c2)c1C(=O)N(C1CC1)S(=O)(=O)c1cccc(Cl)c1 [compound 399] | 3.94 | –
32 | Cc1n[nH]c(C)c1C(=O)N(C1CC1)S(=O)(=O)c1ccc(C(F)(F)F)cc1 [compound 402] | 2.58 | –
33 | Cc1nn(C)c(Oc2cccc(Cl)c2)c1C(=O)N(C1CC1)S(=O)(=O)c1ccc(Cl)c(C(F)(F)F)c1 [compound 404] | 4.56 | –
34 | Cc1nn(C)c(Oc2cccc(Cl)c2)c1C(=O)N(C1CC1)S(=O)(=O)c1ccc(Cl)c(Cl)c1 [compound 405] | 4.46 | –
35 | Cc1nn(C)c(Cl)c1C(=O)N(C1CC1)S(=O)(=O)c1ccc(Cl)c(C(F)(F)F)c1 [compound 406] | 3.76 | –
36 | Cc1nn(C)c(Cl)c1C(=O)N(C1CC1)S(=O)(=O)c1ccc(Cl)c(Cl)c1 [compound 407] | 3.63 | –
37 | Cc1n[nH]c(C)c1C(=O)N(C1CC1)S(=O)(=O)c1ccc(Cl)c(C(F)(F)F)c1 [compound 408] | 3 | –
38 | Cc1n[nH]c(C)c1C(=O)N(C1CC1)S(=O)(=O)c1ccc(Cl)c(Cl)c1 [compound 409] | 2.74 | –
39 | Cc1nn(C)c(C)c1C(=O)N(C1CC1)S(=O)(=O)c1ccc(Cl)c(C(F)(F)F)c1 [compound 411] | 3.37 | –
40 | Cc1nn(C)c(C)c1C(=O)N(C1CC1)S(=O)(=O)c1ccc(Cl)c(Cl)c1 [compound 412] | 3.21 | –
41 | Cc1nn(C)c(C)c1C(=O)N(C1CC1)S(=O)(=O)c1ccc(Cl)cc1Cl [compound 413] | 2.8 | –
42 | Cc1oncc1C(=O)N(C1CC1)S(=O)(=O)c1ccc(Cl)c(Cl)c1Cl [compound 604] | – | chromatographic logP [2, 3]: 2.6
43 | O=C(c1cccnc1Cl)N(C1CC1)S(=O)(=O)c1cccc(Cl)c1Cl [compound 645] | – | chromatographic logP [2, 3]: 3.2
44 | O=C(c1cccnc1Cl)N(C1CC1)S(=O)(=O)c1ccc(Oc2ccccc2)cc1 [compound 646] | – | chromatographic logP [2, 3]: 3.7
45 | O=C(c1cccnc1Cl)N(C1CC1)S(=O)(=O)c1ccc(Cl)c(Cl)c1Cl [compound 647] | – | chromatographic logP [2, 3]: 3.7
46 | O=C(c1cccnc1F)N(C1CC1)S(=O)(=O)c1cccc(Cl)c1Cl [compound 649] | – | chromatographic logP [2, 3]: 2.4
47 | Cc1cnn(C)c1C(=O)N(C1CC1)S(=O)(=O)c1cccc(Cl)c1Cl [compound 658] | – | chromatographic logP [2, 3]: 3.1
48 | Cc1cnn(C)c1C(=O)N(C1CC1)S(=O)(=O)c1ccc(Cl)c(Cl)c1Cl [compound 659] | – | chromatographic logP [2, 3]: 3.6
49 | Cn1ncc(I)c1C(=O)N(C1CC1)S(=O)(=O)c1cccc(Cl)c1Cl [compound 662] | – | chromatographic logP [2, 3]: 2.8
50 | Cn1ncc(I)c1C(=O)N(C1CC1)S(=O)(=O)c1ccc(Cl)c(Cl)c1Cl [compound 663] | – | chromatographic logP [2, 3]: 3.4
51 | COC(=O)C1(N(C(=O)c2c(C(F)(F)F)nn(C)c2F)S(=O)(=O)c2ccc(Cl)c(Cl)c2Cl)CC1 [compound 667] | – | chromatographic logP [2, 4]: 4.04
52 | Cc1nn(C)c(F)c1C(=O)N(C1(c2ccccc2)CC1)S(=O)(=O)c1cccc(Cl)c1Cl [compound 670] | – | chromatographic logP [2, 4]: 4.1

More lines, main results first:

Row | chromatographic logP [1] | Compound | further results
53 | 3.16 | Cc1nn(C)c(F)c1C(=O)N(C1CC1)S(=O)(=O)c1cc(Cl)sc1Cl [compound 435] | –
54 | 1.96 | Cc1nn(C)c(F)c1C(=O)N(C1CC1)S(=O)(=O)c1cccnc1Cl [compound 446] | –
55 | 3.08 | Cc1nn(C)c(F)c1C(=O)N(C1CC1)S(=O)(=O)c1cnc(Cl)c(Br)c1 [compound 447] | –
56 | 4.18 | CCc1onc(C(C)C)c1C(=O)N(C1CC1)S(=O)(=O)c1cccc(Cl)c1 [compound 589] | –
57 | 4.82 | CCc1onc(C(C)C)c1C(=O)N(C1CC1)S(=O)(=O)c1ccc(Cl)c(C(F)(F)F)c1 [compound 594] | –
58 | 4.77 | CCc1onc(C(C)C)c1C(=O)N(C1CC1)S(=O)(=O)c1ccc(Cl)c(Cl)c1 [compound 595] | –
59 | 4.41 | CCc1onc(C(C)C)c1C(=O)N(C1CC1)S(=O)(=O)c1ccc(Cl)cc1Cl [compound 596] | –
60 | 1.97 | Cn1nc(C(=O)N(C2CC2)S(=O)(=O)c2ccccc2Cl)n(C)c1=O [compound 608] | –
61 | 2.01 | COCCn1c(C)c(C(=O)N(C2CC2)S(=O)(=O)c2cccc(Cl)c2)sc1=O [compound 609] | –
62 | 2.01 | Cc1c(C(=O)N(C2CC2)S(=O)(=O)c2cccc(Cl)c2)sc(=O)n1Cc1ccccc1 [compound 613] | –
63 | 2.01 | CCc1c(C(=O)N(C2CC2)S(=O)(=O)c2cccc(Cl)c2)sc(=O)n1C1CC1 [compound 615] | –
64 | 2.01 | CC(C)c1c(C(=O)N(C2CC2)S(=O)(=O)c2cccc(Cl)c2)sc(=O)n1C1CC1 [compound 617] | –
65 | 2.01 | COCCn1c(C)c(C(=O)N(C2CC2)S(=O)(=O)c2ccc(Cl)c(C(F)(F)F)c2)sc1=O [compound 619] | –
66 | 2.01 | COCCn1c(C)c(C(=O)N(C2CC2)S(=O)(=O)c2ccc(Cl)cc2Cl)sc1=O [compound 620] | –
67 | 2.01 | Cc1c(C(=O)N(C2CC2)S(=O)(=O)c2ccc(Cl)c(C(F)(F)F)c2)sc(=O)n1C [compound 622] | –
68 | 2.01 | Cc1c(C(=O)N(C2CC2)S(=O)(=O)c2ccc(Cl)c(Cl)c2)sc(=O)n1C [compound 623] | –
69 | 3.01 | Cc1c(C(=O)N(C2CC2)S(=O)(=O)c2ccc(Cl)c(C(F)(F)F)c2)sc(=O)n1Cc1ccccc1 [compound 625] | –
70 | 3.01 | Cc1c(C(=O)N(C2CC2)S(=O)(=O)c2ccc(Cl)c(Cl)c2)sc(=O)n1Cc1ccccc1 [compound 626] | –
71 | 4.03 | Cc1c(C(=O)N(C2CC2)S(=O)(=O)c2ccc(Cl)cc2Cl)sc(=O)n1Cc1ccccc1 [compound 627] | –
72 | 4.08 | CCc1c(C(=O)N(C2CC2)S(=O)(=O)c2ccc(Cl)c(Cl)c2)sc(=O)n1C1CC1 [compound 630] | –
73 | 2.01 | CCc1c(C(=O)N(C2CC2)S(=O)(=O)c2ccc(Cl)cc2Cl)sc(=O)n1C1CC1 [compound 631] | –
74 | 3.01 | CC(C)c1c(C(=O)N(C2CC2)S(=O)(=O)c2ccc(Cl)c(C(F)(F)F)c2)sc(=O)n1C1CC1 [compound 633] | –
